Data from US8455475B2 (Gruenenthal GmbH, priority 2009, dated 2013).

Each compound was assayed against T1, rat B1R (bradykinin receptor 1) (Rattus norvegicus, UniProt P97583) (assay: FLIPR Ca2+ assay (Fluo-4) on CHO K1 cells stably transfected with the B1R gene of the rat (rB1R cells): % inhibition at 10 μM / IC50, agonist Des-Arg9-bradykinin). Settings: CHO-K1, rat B1R.
T1 construct: expressed in transfected cells; host or cells: CHO K1 cells
T1 sequence (P97583 1-337): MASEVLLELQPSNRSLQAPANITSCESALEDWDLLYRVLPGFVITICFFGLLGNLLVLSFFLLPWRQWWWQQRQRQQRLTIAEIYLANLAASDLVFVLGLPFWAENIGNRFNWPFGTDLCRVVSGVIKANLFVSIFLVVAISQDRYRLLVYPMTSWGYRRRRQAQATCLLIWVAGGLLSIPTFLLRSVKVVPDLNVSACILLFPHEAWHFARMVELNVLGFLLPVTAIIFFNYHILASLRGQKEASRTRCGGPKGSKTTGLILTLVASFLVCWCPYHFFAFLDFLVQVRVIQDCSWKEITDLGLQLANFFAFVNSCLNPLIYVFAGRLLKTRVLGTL
Type: cell-based
In short: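 Cells were Fluo-4-loaded, then test compound (10 μM, or a concentration series for IC50) was preincubated 10–20 min before agonist challenge at EC80: Lys-Des-Arg9-bradykinin for hB1R, Des-Arg9-bradykinin for rB1R. Peak Ca2+ fluorescence (ex 488/em 540 nm) gave % inhibition versus maximal achievable inhibition.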

inhibition at 10 µM [%] | SMILES
94 | O=C(NC1CCc2ccc(C(=O)N3CCC4(CCN(C(=O)Nc5ccc(F)cc5F)CC4)CC3)cc21)c1ccccc1Cl (centres unmarked) [IND_CC-711, 3-[3-[(2-Chloro-benzoyl)amino]-2,3-dihydro-1H-indene-5-carbonyl]-N-(2,4-difluoro-phenyl)-3,9-diazaspiro[5.5]undecane-9-carboxylic acid amide]
98 | O=C(NC1CCc2ccc(C(=O)N3CCC4(CCN(Cc5ccncc5)CC4)CC3)cc21)c1c(F)cccc1Cl (centres unmarked) [IND_CC-785, 2-Chloro-6-fluoro-N-[6-[9-(pyridin-4-yl-methyl)-3,9-diazaspiro[5.5]undecane-3-carbonyl]-2,3-dihydro-1H-inden-1-yl]-benzamide]
51 | O=C(NC1CCc2ccc(C(=O)N3CCC4(CCN(Cc5csnn5)CC4)C3)cc21)c1cc(C(F)(F)F)ccc1Cl (centres unmarked) [IND_CC-656, 2-Chloro-N-[6-[8-([1,2,3]thiadiazol-4-yl-methyl)-2,8-diazaspiro[4.5]decane-2-carbonyl]-2,3-dihydro-1H-inden-1-yl]-5-(trifluoromethyl)-benzamide]
83 | Cc1cccc(Cl)c1C(=O)NC1CCc2ccc(C(=O)N3CCC4(CCN(Cc5ccc(C#N)cc5)CC4)C3)cc21 (centres unmarked) [IND_CC-731, 2-Chloro-N-[6-[8-[(4-cyano-phenyl)-methyl]-2,8-diazaspiro[4.5]decane-2-carbonyl]-2,3-dihydro-1H-inden-1-yl]-6-methyl-benzamide]
68 | CCn1cc(CN2CCC3(CC2)CCN(C(=O)c2ccc4c(c2)C(NC(=O)c2cc(C(F)(F)F)ccc2Cl)CC4)CC3)c(C)n1 (centres unmarked) [IND_CC-693, 2-Chloro-N-[6-[9-[(1-ethyl-3-methyl-1H-pyrazol-4-yl)-methyl]-3,9-diazaspiro[5.5]-undecane-3-carbonyl]-2,3-dihydro-1H-inden-1-yl]-5-(trifluoromethyl)-benzamide]
93 | Cc1cccc(Cl)c1C(=O)NC1CCc2ccc(C(=O)N3CCC4(CCN(Cc5ccc6c(c5)nnn6C)CC4)C3)cc21 (centres unmarked) [IND_CC-766, 2-Chloro-6-methyl-N-[6-[8-[(1-methyl-1H-benzotriazol-5-yl)-methyl]-2,8-diazaspiro[4.5]decane-2-carbonyl]-2,3-dihydro-1H-inden-1-yl]-benzamide]
104 | Cc1cccc(C(=O)N(C)C2CCc3ccc(C(=O)N4CCC5(CC4)CCN(c4ccncc4)CC5)cc32)c1C (centres unmarked) [IND_CC-387, N,2,3-Trimethyl-N-[6-(9-pyridin-4-yl-3,9-diazaspiro[5.5]undecane-3-carbonyl)-2,3-dihydro-1H-inden-1-yl]-benzamide]
57 | Cc1cc(C(=O)N2CCC3(CCN(C(=O)c4ccc5c(c4)C(NC(=O)c4ccccc4Cl)CC5)C3)CC2)n(C(C)(C)C)n1 (centres unmarked) [IND_CC-579, N-[6-[8-(2-tert-Butyl-5-methyl-2H-pyrazole-3-carbonyl)-2,8-diazaspiro-[4.5]decane-2-carbonyl]-2,3-dihydro-1H-inden-1-yl]-2-chloro-benzamide]
105 | O=C(c1ccc2c(c1)C(NS(=O)(=O)Cc1ccccc1F)CC2)N1CCC2(CC1)CCN(c1ccncc1)CC2 (centres unmarked) [IND_CC-349, 1-(2-Fluorophenyl)-N-[6-(9-pyridin-4-yl-3,9-diazaspiro[5.5]undecane-3-carbonyl)-2,3-dihydro-1H-inden-1-yl]-methanesulfonic acid amide]
103 | Cc1cc(F)ccc1S(=O)(=O)NC1c2cc(C(=O)N3CCC4(CC3)CCN(c3ccncc3)CC4)ccc2CC1(C)C (centres unmarked) [IND_CC-338, N-[2,2-Dimethyl-6-(9-pyridin-4-yl-3,9-diazaspiro[5.5]undecane-3-carbonyl)-1,3-dihydro-inden-1-yl]-4-fluoro-2-methyl-benzenesulfonic acid amide]
100 | O=C(NC1CCc2ccc(C(=O)N3CCC4(CCN(c5ccncc5)CC4)C3)cc21)c1cc(Cl)ccc1C(F)(F)F (centres unmarked) [IND_CC-316, 5-Chloro-N-[6-(8-pyridin-4-yl-2,8-diazaspiro[4.5]decane-2-carbonyl)-2,3-dihydro-1H-inden-1-yl]-2-(trifluoromethyl)-benzamide]
102 | CN(C1CCc2ccc(C(=O)N3CCC4(CC3)CCN(c3ccncc3)CC4)cc21)S(=O)(=O)Cc1ccccc1F (centres unmarked) [IND_CC-348, 1-(2-Fluorophenyl)-N-methyl-N-[6-(9-pyridin-4-yl-3,9-diazaspiro[5.5]undecane-3-carbonyl)-2,3-dihydro-1H-inden-1-yl]-methanesulfonic acid amide]
67 | Cn1nnc2cc(CN3CCC4(CC3)CCN(C(=O)c3ccc5c(c3)C(NC(=O)c3cc(Cl)ccc3F)CC5)C4)ccc21 (centres unmarked) [IND_CC-673, 5-Chloro-2-fluoro-N-[6-[8-[(1-methyl-1H-benzotriazol-5-yl)-methyl]-2,8-diazaspiro[4.5]decane-2-carbonyl]-2,3-dihydro-1H-inden-1-yl]-benzamide]
69 | Cc1cc(F)cc(C)c1S(=O)(=O)NC1CCc2ccc(C(=O)N3CCC4(CC3)CCN(c3ccncc3)C4)cc21 (centres unmarked) [IND_CC-356, 4-Fluoro-2,6-dimethyl-N-[6-(2-pyridin-4-yl-2,8-diazaspiro[4.5]decane-8-carbonyl)-2,3-dihydro-1H-inden-1-yl]-benzenesulfonic acid amide]
57 | Cn1ccc2cc(S(=O)(=O)N3CCC4(CCN(C(=O)c5ccc6c(c5)C(N(C(=O)c5ccccc5Cl)C5CC5)CC6)C4)CC3)ccc21 (centres unmarked) [IND_CC-619, 2-Chloro-N-cyclopropyl-N-[6-[8-[(1-methyl-1H-indol-5-yl)sulfonyl]-2,8-diazaspiro[4.5]decane-2-carbonyl]-2,3-dihydro-1H-inden-1-yl]-benzamide]
100 | CN(C)c1ncc(CN2CCC3(CC2)CCN(C(=O)c2ccc4c(c2)C(NC(=O)c2cc(C(F)(F)F)ccc2Cl)CC4)CC3)cn1 (centres unmarked) [IND_CC-694, 2-Chloro-N-[6-[9-[(2-dimethylamino-pyrimidin-5-yl)-methyl]-3,9-diazaspiro[5.5]-undecane-3-carbonyl]-2,3-dihydro-1H-inden-1-yl]-5-(trifluoromethyl)-benzamide]
76 | O=C(NC1CCc2ccc(C(=O)N3CCC4(CCN(Cc5c(F)cccc5Cl)CC4)CC3)cc21)c1c(F)cccc1Cl (centres unmarked) [IND_CC-803, 2-Chloro-N-[6-[9-[(2-chloro-6-fluoro-phenyl)-methyl]-3,9-diazaspiro-[5.5]undecane-3-carbonyl]-2,3-dihydro-1H-inden-1-yl]-6-fluoro-benzamide]
104 | CC(C)(C)CC(=O)NC1CCc2ccc(C(=O)N3CCC4(CC3)CCN(c3ccncc3)CC4)cc21 (centres unmarked) [IND_CC-371, 3,3-Dimethyl-N-[6-(9-pyridin-4-yl-3,9-diazaspiro[5.5]undecane-3-carbonyl)-2,3-dihydro-1H-inden-1-yl]-butyramide]
103 | O=C(NC1CCc2ccc(C(=O)N3CCC4(CCN(Cc5c(F)cccc5Cl)CC4)C3)cc21)c1ccccc1Cl (centres unmarked) [IND_CC-557, 2-Chloro-N-[6-[8-[(2-chloro-6-fluoro-phenyl)-methyl]-2,8-diazaspiro[4.5]decane-2-carbonyl]-2,3-dihydro-1H-inden-1-yl]-benzamide]
57 | Cc1cccc(Cl)c1C(=O)NC1CCc2ccc(C(=O)N3CCC4(CCN(Cc5c(C)nn(C)c5C)CC4)C3)cc21 (centres unmarked) [IND_CC-761, 2-Chloro-6-methyl-N-[6-[8-[(1,3,5-trimethyl-1H-pyrazol-4-yl)-methyl]-2,8-diazaspiro[4.5]decane-2-carbonyl]-2,3-dihydro-1H-inden-1-yl]-benzamide]
